Data taken from patent US12655116B2, “Substituted isophthalic acid diamides” (Bayer Aktiengesellschaft, priority 2020, dated 2026).

Experiments:
ABUTH [1] = experiment: Pre-emergence herbicidal action against ABUTH; format: in vivo, Abutilon theophrasti
Outline: (§1)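 Sandy loam pots, seeds covered with soil, then surface-treated with WP or EC formulations at 600–800 l/ha water plus 0.2% wetting agent. Greenhouse, 3 weeks. Percent damage vs untreated controls.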

AMARE [2] = experiment: Pre-emergence herbicidal action against AMARE; format: in vivo, Amaranthus retroflexus
Outline: as §1

ECHCG [3] = experiment: Pre-emergence herbicidal action against ECHCG; format: in vivo, Echinochloa crus-galli; conditions: 80 g/ha
Outline: as §1

MATIN [4] = experiment: Pre-emergence herbicidal action against MATIN; format: in vivo, Matricaria inodora
Outline: as §1

SETVI [5] = experiment: Pre-emergence herbicidal action against SETVI; format: in vivo, Setaria viridis; conditions: dosage 80 g/ha
Outline: as §1

STEME [6] = experiment: Pre-emergence herbicidal action against STEME; format: in vivo, Stellaria media
Outline: as §1

VERPE = experiment: Pre-emergence herbicidal action against VERPE; format: in vivo, Veronica persica; conditions: dosage 80 g/ha
Outline: as §1

VIOTR [7] = experiment: Pre-emergence herbicidal action against VIOTR; format: in vivo, Viola tricolor
Outline: as §1

DIGSA [8] = experiment: Pre-emergence herbicidal action against DIGSA; format: in vivo, Digitaria sanguinalis
Outline: as §1

ABUTH [9] = experiment: Post-emergence herbicidal action against ABUTH; format: in vivo, Abutilon theophrasti; conditions: visual assessment about 3 weeks after treatment vs untreated controls
Outline: (§2)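 Visual % rating (0% = as untreated, 100% = dead) ~3 wk after spraying one-leaf-stage plants grown in sandy loam; WP/EC in water at 600–800 l/ha, 0.2% wetting agent.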

ALOMY = experiment: Post-emergence herbicidal action against ALOMY; format: in vivo, Alopecurus myosuroides; conditions: dosage 20 g/ha, visual assessment about 3 weeks after treatment vs untreated controls
Outline: as §2

AMARE [10] = experiment: Post-emergence herbicidal action against AMARE; format: in vivo, Amaranthus retroflexus; conditions: 20 g/ha, visual assessment about 3 weeks after treatment, 100% = plants have died, 0% = like control plants
Outline: as §2

AVEFA = experiment: Post-emergence herbicidal action against AVEFA; format: in vivo, Avena fatua; conditions: 20 g/ha, visual assessment about 3 weeks after treatment, 100% = plants have died, 0% = like control plants
Outline: as §2

ECHCG [11] = experiment: Post-emergence herbicidal action against ECHCG; format: in vivo, Echinochloa crus-galli
Outline: as §2

MATIN [12] = experiment: Post-emergence herbicidal action against MATIN; format: in vivo, Matricaria inodora; conditions: dosage 20 g/ha
Outline: as §2

PHBPU = experiment: Post-emergence herbicidal action against PHBPU; format: in vivo, Pharbitis purpurea
Outline: as §2

SETVI [13] = experiment: Post-emergence herbicidal action against SETVI; format: in vivo, Setaria viridis
Outline: as §2

STEME [14] = experiment: Post-emergence herbicidal action against STEME; format: in vivo, Stellaria media
Protocol: Seeds of monocotyledonous and dicotyledonous weed and crop plants are laid out in sandy loam soil in wood-fiber pots, covered with soil and cultivated in a greenhouse under good growth conditions. 2 to 3 weeks after sowing, the test plants are treated at the one-leaf stage. The compounds of the invention, formulated in the form of wettable powders (WP) or as emulsion concentrates (EC), are then sprayed onto the green parts of the plants in the form of an aqueous suspension or emulsion at a water application rate equivalent to 600 to 800 l/ha, with addition of 0.2% wetting agent. After the test plants have been left to stand in the greenhouse under optimal growth conditions for about 3 weeks, the action of the preparations is assessed visually in comparison to untreated controls (herbicidal action in percent (%): 100% activity=the plants have died, 0% activity=like control plants). […] The tables below illustrate, in an illustrative manner, the post-emergence herbicidal action of the compounds of the invention, the herbicidal activity being stated in percent.

VIOTR [15] = experiment: Post-emergence herbicidal action against VIOTR; format: in vivo, Viola tricolor; conditions: 20 g/ha
Outline: as §2

DIGSA [16] = experiment: Post-emergence herbicidal action against DIGSA; format: in vivo, Digitaria sanguinalis
Outline: as §2

[17] = 80 g/ha, scored visually after 3 weeks vs untreated controls (100% = plants have died, 0% = like control plants)

Question: Which “Pre-emergence action against ABUTH (herbicidal activity)” value (ABUTH [1]; [17]) does the source give for `CCNC(=O)c1c(C(F)F)ccc(C(=O)Nc2nnco2)c1SC` [Example 5-75] here?
Answer: 100%

Question: What about the “Pre-emergence action against ABUTH (herbicidal activity in percent)” value (ABUTH [1]; dosage 20 g/ha, scored visually after 3 weeks vs untreated controls, 100% = plants have died, 0% = like control plants) of the same compound?
Answer: 100%

Question: What about the “Pre-emergence action against AMARE in %” value (AMARE [2]; 20 g/ha, scored visually after 3 weeks vs untreated controls, 100% = plants have died, 0% = like control plants) of the same compound?
Answer: 100%

Question: And the “Pre-emergence action against AMARE in %” value (AMARE [2]; [17])?
Answer: 100%

Question: And the “Pre-emergence action against ECHCG in %” value (ECHCG [3])?
Answer: 100%

Question: What about the “Pre-emergence action against MATIN in %” value (MATIN [4]; dosage 20 g/ha) of the same compound?
Answer: 80%

Question: What about the “Pre-emergence action against MATIN in %” value (MATIN [4]; dosage 80 g/ha) of the same compound?
Answer: 100%

Question: And the “Pre-emergence action against SETVI in %” value (SETVI [5])?
Answer: 100%

Question: What about the “Pre-emergence action against STEME in %” value (STEME [6]; dosage 20 g/ha) of the same compound?
Answer: 100%

Question: And the “Pre-emergence action against STEME in %” value (STEME [6]; dosage 80 g/ha)?
Answer: 100%

Question: What about the “Pre-emergence action against VERPE in %” value (VERPE) of the same compound?
Answer: 90%

Question: And the “Pre-emergence action against VIOTR in %” value (VIOTR [7]; dosage 20 g/ha)?
Answer: 100%

Question: What about the “Pre-emergence action against VIOTR in %” value (VIOTR [7]; dosage 80 g/ha) of the same compound?
Answer: 100%

Question: What about the “Pre-emergence action against DIGSA in %” value (DIGSA [8]; dosage 20 g/ha) of the same compound?
Answer: 100%

Question: What about the “Pre-emergence action against DIGSA in %” value (DIGSA [8]; dosage 80 g/ha) of the same compound?
Answer: 100%

Question: What about the “Post-emergence action against ABUTH in %” value (ABUTH [9]; dosage 5 g/ha) of the same compound?
Answer: 90%

Question: What about the “Post-emergence action against ABUTH in %” value (ABUTH [9]; dosage 20 g/ha) of the same compound?
Answer: 90%

Question: And the “Post-emergence action against ALOMY in %” value (ALOMY)?
Answer: 80%

Question: What about the “Post-emergence action at 20 g/ha against AMARE in %” value (AMARE [10]) of the same compound?
Answer: 90%

Question: And the “Post-emergence action at 20 g/ha against AVEFA in %” value (AVEFA)?
Answer: 80%

Question: What about the “Post-emergence action against ECHCG in %” value (ECHCG [11]; dosage 5 g/ha) of the same compound?
Answer: 80%

Question: What about the “Post-emergence action against ECHCG in %” value (ECHCG [11]; dosage 20 g/ha) of the same compound?
Answer: 80%

Question: What about the “Post-emergence action against MATIN in %” value (MATIN [12]) of the same compound?
Answer: 80%

Question: And the “Post-emergence action against PHBPU in %” value (PHBPU; dosage 5 g/ha)?
Answer: 80%

Question: What about the “Post-emergence action against PHBPU in %” value (PHBPU; dosage 20 g/ha) of the same compound?
Answer: 80%

Question: And the “Post-emergence action against SETVI in %” value (SETVI [13]; dosage 5 g/ha)?
Answer: 80%

Question: And the “Post-emergence action against SETVI in %” value (SETVI [13]; dosage 20 g/ha)?
Answer: 80%

Question: What about the “Post-emergence action against STEME in %” value (STEME [14]; 20 g/ha) of the same compound?
Answer: 100%

Question: What about the “Post-emergence action against STEME in %” value (STEME [14]; dosage 5 g/ha) of the same compound?
Answer: 90%

Question: What about the “Post-emergence action against VIOTR in %” value (VIOTR [15]) of the same compound?
Answer: 80%

Question: And the “Post-emergence action against DIGSA in %” value (DIGSA [16]; 5 g/ha)?
Answer: 90%

Question: What about the “Post-emergence action against DIGSA” value (DIGSA [16]; 20 g/ha) of the same compound?
Answer: 90%
